In patent US11845752B2, “Substituted imidazo[1,5-a]pyrazines for the treatment of hepatitis B” (ALIGOS THERAPEUTICS, INC., priority 2020, dated 2023) one finds EC50 data, which are given here for 19 compounds.

Like-named read-outs stand apart in the source and are kept apart here.

This test deals with HBV. Description: HBV-DNA antiviral assay using HepG2.117 cells (intracellular HBV DNA by qPCR). The format is cell-based, HBV genotype D. The settings on record: HBV DNA inhibition, 3 days incubation, read-out: EC50. The essentials:
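Read-outs: cell-lysate HBV DNA copies by qPCR (interpolated from gBlock standard) and parallel cellular ATP luminescence for CC50, both normalised to 2% DMSO controls and fitted by non-linear regression. HepG2.117 Tet-off genotype D HBV cells, induced by doxycycline removal, exposed 3 days to 4-fold serial dilutions.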
On the technique in general: Real-time PCR tracks product formation cycle by cycle.

The mark [1] stands for this setting: Hepatitis B virus, HepG2.117, 72 h.

Take `C[C@@H]1Cn2c(c(C(=O)NCc3ccccc3-c3ccncn3)n(-c3ccc4c(cnn4CC(F)(F)F)c3)c2=O)CN1C(=O)c1ccc(Br)c(C(F)(F)F)c1` (stereo in doubt) [Compound 72a, rac-(6R)-7-[4-bromo-3-(trifluoromethyl)benzoyl]-6-methyl-3-oxo-N-[(2-pyrimidin-4-ylphenyl)methyl]-2-[1-(2,2,2-trifluoroethyl)indazol-5-yl]-6,8-dihydro-SH-imidazo[1,5-a]pyrazine-1-carboxamide]: the EC50 (commonly the concentration giving half of the maximal effect) under setting [1] is less than 50 nM.

For the compound `C[C@H]1Cn2c(c(C(=O)NCc3ccccc3-c3ccncn3)n(-c3ccc4c(cnn4CC(F)(F)F)c3)c2=O)CN1C(=O)c1ccc(Br)c(C(F)(F)F)c1` (stereo in doubt) [Compound 72b, rac-(6S)-7-[4-bromo-3-(trifluoromethyl)benzoyl]-6-methyl-3-oxo-N-[(2-pyrimidin-4-ylphenyl)methyl]-2-[1-(2,2,2-trifluoroethyl)indazol-5-yl]-6,8-dihydro-SH-imidazo[1,5-a]pyrazine-1-carboxamide], the EC50 under setting [1] lay in the range of 50 to 500 nM.

On to `C[C@@H]1Cn2c(c(C(=O)NCc3ccccc3-c3ccncn3)n(-c3ccc(OC[C@@](C)(O)C(F)(F)F)cc3)c2=O)CN1C(=O)c1ccc(Br)c(C(F)(F)F)c1` (stereo in doubt) [Compound 82a, rac-(6R)-7-[4-bromo-3-(trifluoromethyl)benzoyl]-6-methyl-3-oxo-N-[(2-pyrimidin-4-ylphenyl)methyl]-2-[4-[rac-(2R)-3,3,3-trifluoro-2-hydroxy-2-methyl-propoxy]phenyl]-6,8-dihydro-5H-imidazo[1,5-a]pyrazine-1-carboxamide], for which, under setting [1], the half-maximal effective concentration (EC50) is 50 to 500 nM.

Consider `C[C@H]1Cn2c(c(C(=O)NCc3ccccc3-c3ccncn3)n(-c3ccc(OC[C@@](C)(O)C(F)(F)F)cc3)c2=O)CN1C(=O)c1ccc(Br)c(C(F)(F)F)c1` (stereo in doubt) [Compound 82b, rac-(6S)-7-[4-bromo-3-(trifluoromethyl)benzoyl]-6-methyl-3-oxo-N-[(2-pyrimidin-4-ylphenyl)methyl]-2-[4-[rac-(2R)-3,3,3-trifluoro-2-hydroxy-2-methyl-propoxy]phenyl]-6,8-dihydro-SH-imidazo[1,5-a]pyrazine-1-carboxamide], for which the half-maximal effective concentration (EC50) under setting [1] is less than 50 nM.

`C[C@@H]1Cn2c(c(C(=O)NCc3ccccc3-c3ccncn3)n(-c3ccc(OC[C@](C)(O)C(F)(F)F)cc3)c2=O)CN1C(=O)c1ccc(Br)c(C(F)(F)F)c1` (stereo in doubt) [Compound 83a, rac-(6R)-7-[4-bromo-3-(trifluoromethyl)benzoyl]-6-methyl-3-oxo-N-[(2-pyrimidin-4-ylphenyl)methyl]-2-[4-[rac-(2S)-3,3,3-trifluoro-2-hydroxy-2-methyl-propoxy]phenyl]-6,8-dihydro-SH-imidazo[1,5-a]pyrazine-1-carboxamide]: the EC50 under setting [1] fell in the range of 50 to 500 nM.

On to `C[C@H]1Cn2c(c(C(=O)NCc3ccccc3-c3ccncn3)n(-c3ccc(OC[C@](C)(O)C(F)(F)F)cc3)c2=O)CN1C(=O)c1ccc(Br)c(C(F)(F)F)c1` (stereo in doubt) [Compound 83b, rac-(6S)-7-[4-bromo-3-(trifluoromethyl)benzoyl]-6-methyl-3-oxo-N-[(2-pyrimidin-4-ylphenyl)methyl]-2-[4-[rac-(2S)-3,3,3-trifluoro-2-hydroxy-2-methyl-propoxy]phenyl]-6,8-dihydro-5H-imidazo[1,5-a]pyrazine-1-carboxamide], for which the concentration for a half-maximal effect (EC50) under setting [1] lay in the range of 50 to 500 nM.

For `C[C@@H]1Cn2c(c(C(=O)NCc3ccccc3-c3ccccn3)n(-c3ccc(OC[C@@](C)(O)C(F)(F)F)cc3)c2=O)CN1C(=O)c1ccc(Br)c(C(F)(F)F)c1` (stereo in doubt) [Compound 89a, rac-(6R)-7-[4-bromo-3-(trifluoromethyl)benzoyl]-6-methyl-3-oxo-N-[[2-(2-pyridyl)phenyl]methyl]-2-[4-[rac-(2R)-3,3,3-trifluoro-2-hydroxy-2-methyl-propoxy]phenyl]-6,8-dihydro-5H-imidazo[1,5-a]pyrazine-1-carboxamide], the half-maximal effective concentration (EC50) under setting [1] is less than 50 nM.

For the compound `C[C@H]1Cn2c(c(C(=O)NCc3ccccc3-c3ccccn3)n(-c3ccc(OC[C@@](C)(O)C(F)(F)F)cc3)c2=O)CN1C(=O)c1ccc(Br)c(C(F)(F)F)c1` (stereo in doubt) [Compound 89b, rac-(6S)-7-[4-bromo-3-(trifluoromethyl)benzoyl]-6-methyl-3-oxo-N-[[2-(2-pyridyl)phenyl]methyl]-2-[4-[rac-(2R)-3,3,3-trifluoro-2-hydroxy-2-methyl-propoxy]phenyl]-6,8-dihydro-SH-imidazo[1,5-a]pyrazine-1-carboxamide], under setting [1], the EC50 is less than 50 nM.

`C[C@@H]1Cn2c(c(C(=O)NCc3ccccc3-c3ccccn3)n(-c3ccc(OC[C@](C)(O)C(F)(F)F)cc3)c2=O)CN1C(=O)c1ccc(Br)c(C(F)(F)F)c1` (stereo in doubt) [Compound 90a, rac-(6R)-7-[4-bromo-3-(trifluoromethyl)benzoyl]-6-methyl-3-oxo-N-[[2-(2-pyridyl)phenyl]methyl]-2-[4-[rac-(2S)-3,3,3-trifluoro-2-hydroxy-2-methyl-propoxy]phenyl]-6,8-dihydro-5H-imidazo[1,5-a]pyrazine-1-carboxamide]: the EC50 under setting [1] fell in the range of 50 to 500 nM.

Consider `C[C@H]1Cn2c(c(C(=O)NCc3ccccc3-c3ccccn3)n(-c3ccc(OC[C@](C)(O)C(F)(F)F)cc3)c2=O)CN1C(=O)c1ccc(Br)c(C(F)(F)F)c1` (stereo in doubt) [Compound 90b, rac-(6S)-7-[4-bromo-3-(trifluoromethyl)benzoyl]-6-methyl-3-oxo-N-[[2-(2-pyridyl)phenyl]methyl]-2-[4-[rac-(2S)-3,3,3-trifluoro-2-hydroxy-2-methyl-propoxy]phenyl]-6,8-dihydro-5H-imidazo[1,5-a]pyrazine-1-carboxamide], for which the half-maximal effective concentration (EC50) under setting [1] is 50 to 500 nM.

As to `CC1Cn2c(c(C(=O)NCc3ccccc3-c3ncccn3)n(-c3ccc4c(cnn4C[C@@H](C)O)c3)c2=O)CN1C(=O)c1ccc(Br)c(C(F)(F)F)c1` (stereo in doubt) [Compound 91a, (6R*)-7-[4-bromo-3-(trifluoromethyl)benzoyl]-2-{1-[(2R)-2-hydroxypropyl]indazol-5-yl}-6-methyl-3-oxo-N-{[2-(pyrimidin-2-yl)phenyl]methyl}-5H,6H,8H-imidazo[1,5-a]pyrazine-1-carboxamide], the EC50 under setting [1] fell in the range of 50 to 500 nM.

In the case of `CC1Cn2c(c(C(=O)NCc3ccccc3-c3ncccn3)n(-c3ccc4c(cnn4C[C@@H](C)O)c3)c2=O)CN1C(=O)c1ccc(Br)c(C(F)(F)F)c1` (stereo in doubt) [Compound 91b, (6S*)-7-[4-bromo-3-(trifluoromethyl)benzoyl]-2-{1-[(2R)-2-hydroxypropyl]indazol-5-yl}-6-methyl-3-oxo-N-{[2-(pyrimidin-2-yl)phenyl]methyl}-5H,6H,8H-imidazo[1,5-a]pyrazine-1-carboxamide], the concentration giving a half-maximal response (EC50) is 50 to 500 nM.

`O=C(NCc1ccccc1-c1ncccn1)c1c2n(c(=O)n1-c1ccc(OC3CC3)cc1)C[C@@H](COCc1ccccc1)N(C(=O)c1ccc(Br)c(C(F)(F)F)c1)C2` (stereo in doubt) [Compound 130, 6-(benzyloxymethyl)-7-[4-bromo-3-(trifluoromethyl)benzoyl]-2-[4-(cyclopropoxy)phenyl]-3-oxo-N-[(2-pyrimidin-2-ylphenyl)methyl]-6,8-dihydro-5H-imidazo[1,5-a]pyrazine-1-carboxamide]: the EC50 under setting [1] lay within 500 to 5000 nM.

Regarding `O=C(NCc1ccccc1-c1ncccn1)c1c2n(c(=O)n1-c1ccc(OC3CC3)cc1)C[C@@H](CO)N(C(=O)c1ccc(Br)c(C(F)(F)F)c1)C2` (stereo in doubt) [Compound 131, 7-[4-bromo-3-(trifluoromethyl)benzoyl]-2-[4-(cyclopropoxy)phenyl]-6-(hydroxymethyl)-3-oxo-N-[(2-pyrimidin-2-ylphenyl)methyl]-6,8-dihydro-5H-imidazo[1,5-a]pyrazine-1-carboxamide], the EC50 under setting [1] was in the range of 500 to 5000 nM.

On to `CC1Cn2c(c(C(=O)NCc3ccccc3-c3cccnn3)n(-c3ccc(OCC(C)(O)C(F)(F)F)cc3)c2=O)CN1C(=O)c1ccc(Br)c(C(F)(F)F)c1` (stereo not shown) [Compound 85a, 7-(4-bromo-3-(trifluoromethyl)benzoyl)-6-methyl-3-oxo-N-(2-(pyridazin-3-yl)benzyl)-2-(4-(3,3,3-trifluoro-2-hydroxy-2-methylpropoxy)phenyl)-2,3,5,6,7,8-hexahydroimidazo[1,5-a]pyrazine-1-carboxamide], for which, under setting [1], the EC50 lay in the range of 50 to 500 nM.

`CC(C)(O)COc1ccc(-n2c(C(=O)NCc3ccccc3)c3n(c2=O)CCN(C(=O)c2ccc(Br)c(Cl)c2)C3)cc1` [Compound 114, N-benzyl-7-(4-bromo-3-chloro-benzoyl)-2-[4-(2-hydroxy-2-methyl-propoxy)phenyl]-3-oxo-6,8-dihydro-5H-imidazo[1,5-a]pyrazine-1-carboxamide]: the 50% effective concentration (EC50) under setting [1] fell in the range of 50 to 500 nM.

Turning to `C[C@@H]1CN(c2ccc(-n3c(C(=O)NCc4ccccc4)c4n(c3=O)CCN(C(=O)c3ccc(Br)c(Cl)c3)C4)cc2)CCN1C` [Compound 116, N-benzyl-7-(4-bromo-3-chloro-benzoyl)-3-oxo-2-[4-[(3R)-3,4-dimethylpiperazin-1-yl]phenyl]-6,8-dihydro-5H-imidazo[1,5-a]pyrazine-1-carboxamide], under setting [1], the 50% effective concentration (EC50) lay in the range of 50 to 500 nM.

As to `CC1(O)CN(c2ccc(-n3c(C(=O)NCc4ccccc4)c4n(c3=O)CCN(C(=O)c3ccc(Br)c(Cl)c3)C4)cc2)C1` [Compound 117, N-benzyl-7-(4-bromo-3-chloro-benzoyl)-2-[4-(3-hydroxy-3-methyl-azetidin-1-yl)phenyl]-3-oxo-6,8-dihydro-5H-imidazo[1,5-a]pyrazine-1-carboxamide], under setting [1], the 50% effective concentration (EC50) was 50 to 500 nM.

For the compound `O=C(NCc1ccccc1)c1c2n(c(=O)n1-c1ccc(N3CC(O)(C(F)(F)F)C3)cc1)CCN(C(=O)c1ccc(Br)c(Cl)c1)C2` [Compound 118, N-benzyl-7-(4-bromo-3-chloro-benzoyl)-2-[4-[3-hydroxy-3-(trifluoromethyl)azetidin-1-yl]phenyl]-3-oxo-6,8-dihydro-5H-imidazo[1,5-a]pyrazine-1-carboxamide], the concentration for a half-maximal effect (EC50) under setting [1] lay within 50 to 500 nM.
